In patent US20040235080A1, “Methods and reagents for detecting endotoxin” (priority 2001, published 2004):

Assays:
[1] = biological target: T1, recombinant Factor C (rFC) (Carcinoscorpius rotundicauda, UniProt Q26422); test: recombinant Factor C (rFC) assay with different detergents and detergent concentrations; format: biochemical; settings: for Detergent concentration range for rFC inhibition / Detergent concentration range for rFC enhancing: 1 EU/ml EC-6 endotoxin, DPR-coumarin substrate, data after 30 minutes
T1 construct: made in house; host or cells: Culture supernatant, lot 031901I
T1 sequence (Q26422 26-1019): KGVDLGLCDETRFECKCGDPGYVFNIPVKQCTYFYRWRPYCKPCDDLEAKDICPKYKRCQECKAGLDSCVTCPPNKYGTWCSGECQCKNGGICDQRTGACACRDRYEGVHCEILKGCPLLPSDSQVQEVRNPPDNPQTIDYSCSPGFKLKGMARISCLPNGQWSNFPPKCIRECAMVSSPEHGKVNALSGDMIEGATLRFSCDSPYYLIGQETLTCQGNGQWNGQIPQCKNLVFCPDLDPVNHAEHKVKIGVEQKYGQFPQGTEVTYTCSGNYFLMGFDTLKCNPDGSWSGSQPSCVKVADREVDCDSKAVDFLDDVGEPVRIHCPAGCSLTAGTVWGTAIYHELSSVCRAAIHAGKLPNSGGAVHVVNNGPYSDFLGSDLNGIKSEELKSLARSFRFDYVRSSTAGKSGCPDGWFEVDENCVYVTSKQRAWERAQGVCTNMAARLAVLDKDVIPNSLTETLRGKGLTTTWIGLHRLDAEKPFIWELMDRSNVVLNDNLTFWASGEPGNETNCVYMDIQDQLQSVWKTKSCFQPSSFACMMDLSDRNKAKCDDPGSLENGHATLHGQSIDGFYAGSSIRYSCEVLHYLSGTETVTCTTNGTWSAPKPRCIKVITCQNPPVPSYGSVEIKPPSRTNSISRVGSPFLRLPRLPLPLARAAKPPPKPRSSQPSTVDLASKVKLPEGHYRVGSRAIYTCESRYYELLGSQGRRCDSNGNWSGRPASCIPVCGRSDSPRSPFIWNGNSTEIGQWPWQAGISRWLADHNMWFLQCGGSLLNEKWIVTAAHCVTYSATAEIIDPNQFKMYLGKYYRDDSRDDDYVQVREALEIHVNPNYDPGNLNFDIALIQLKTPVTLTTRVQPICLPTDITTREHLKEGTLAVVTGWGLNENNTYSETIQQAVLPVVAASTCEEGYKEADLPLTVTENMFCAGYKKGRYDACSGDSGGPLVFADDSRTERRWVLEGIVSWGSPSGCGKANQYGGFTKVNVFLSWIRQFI
Procedure: The recombinant Factor C (rFC) assay was carried out using 20 μl of each detergent (˜10× of final concentration), 150 μl of 1 EU/ml EC-6, 10 μl of rFC supernatant 031901I, 20 μl of 300 mM Tris, pH 8.0, and 20 μl of 0.55 mM DPR-coumarin substrate. The results of the assay were read at 38° C. using a Cytofluor reader set at 390/440 nm, 5 minutes per cycle, for 1 hour. The data were graphed after 30 minutes.

[2] = biological target: T2, recombinant Carcinoscorpius rotundicauda Factor C (Carcinoscorpius rotundicauda, UniProt Q26422); test: endotoxin assay of Examples 1 and 13 (two-step and one-step); format: biochemical; settings: assay exemplified in Examples 1 and 13
T2 construct: made in house; host or cells: Sf9 insect cells, baculovirus (pFASTBAC1 / bacmid); the secreted protein is used as culture supernatant
T2 sequence (Q26422 26-1019): T1 sequence (Q26422 26-1019)
Procedure: Endotoxin was pre-incubated with culture medium containing recombinant Carcinoscorpius rotundicauda Factor C obtained from recombinant Factor C-producing Sf9 cells for 1 hour in assay buffer (30 mM Tris, pH 8.0, 30 mM NaCl, 0.3% lactose, and 0.0025% Zwittergent 3-14). The substrate N-t-Boc-Asp(Obzl)-Pro-Arg-7-Amido-4-methyl coumarin (DPR-coumarin) was added to the mixture to a final concentration of […]. The fluorescence generated from the cleavage of the substrate by activated Factor C was measured after 15-20 minutes. Results of a similar assay carried out using the substrate N-t-Boc-Val-Pro-Arg-7-Amido-4-methyl coumarin at a final concentration of 100 mM are shown in FIG. 5.
A one-step endotoxin assay can be carried out in a 96-well plate, using 100 μl each of blank and endotoxin standards. […] The plate is incubated at 37° C. for 1 hour. Excitation and emission are read at 390 and 440 nm, respectively, in a fluorescence microplate reader.

Compound | width of the enhancing concentration range [1] | Detergent concentration range for rFC inhibition [1] | optimal concentration of the surfactant [2] [%] | Detergent concentration range for rFC enhancing [1]
CCCCCCCCS[C@@H]1O[C@H](CO)[C@@H](O)[C@H](O)[C@H]1O [OTG, n-Octyl-beta-D-thioglycopyranoside] | narrow | >=0.5% | – | –
CCCCCCCCCCCCCC[N+](C)(C)CCCS(=O)(=O)[O-] [Zwittergent 3-14, N-tetradecyl-N,N-dimethyl-3-ammonio-1-propanesulfonate] | narrow | >=0.004% | 0.0025 | –
CCCCCCCCCCCCOS(=O)(=O)[O-].[Na+] [SDS, sodium dodecyl sulfate] | – | >=0.0004% | – | –
CCCCCCCCCCCC(=O)OCCOCCOCCOCCOCCOCCOCCOCCOCCOCCOCCOCCOCCOCCOCCOCCOCCOCCOCCOCCOCC(OCCOCCOCCOCCOCCOCCOCCOCCOCCOCCOCCOCCOCCOCCOCCOCCOCCOCCOCCOCCO)C1OCC(OCCOCCOCCOCCOCCOCCOCCOCCOCCOCCOCCOCCOCCOCCOCCOCCOCCOCCOCCOCCO)C1OCCOCCOCCOCCOCCOCCOCCOCCOCCOCCOCCOCCOCCOCCOCCOCCOCCOCCOCCOCCO (centres unmarked) [Tween 20, polyoxyethylene (20) sorbitan monolaurate] | wide | >0.5% | – | 0.001-0.5%
CCCCCCCC/C=C\CCCCCCCC(=O)OCCOCC(OCCO)C1OCC(OCCO)C1OCCO (centres unmarked) [Tween 80, polyoxyethylene (20) sorbitan monooleate] | wide | >0.25% | – | 0.001-0.25%
Triton X-100 | narrow | >=0.008% | – | –
